The source made the active and inactive calls. No cut-off for these calls is given here.
Assays:
[1] = molecular target: Mitogen-activated protein kinase 14 (Homo sapiens, UniProt Q16539); test: Inhibition of p38alpha (unknown origin) at 10 uM by Ambit Kinomescan binding assay relative to control; values are per cent of control
[2] = molecular target: T1, Serine/threonine-protein kinase LATS1 (Homo sapiens) (UniProt O95835); test: Inhibition of LATS1 (unknown origin) at 10 uM by Ambit Kinomescan binding assay
T1 sequence (whole entry): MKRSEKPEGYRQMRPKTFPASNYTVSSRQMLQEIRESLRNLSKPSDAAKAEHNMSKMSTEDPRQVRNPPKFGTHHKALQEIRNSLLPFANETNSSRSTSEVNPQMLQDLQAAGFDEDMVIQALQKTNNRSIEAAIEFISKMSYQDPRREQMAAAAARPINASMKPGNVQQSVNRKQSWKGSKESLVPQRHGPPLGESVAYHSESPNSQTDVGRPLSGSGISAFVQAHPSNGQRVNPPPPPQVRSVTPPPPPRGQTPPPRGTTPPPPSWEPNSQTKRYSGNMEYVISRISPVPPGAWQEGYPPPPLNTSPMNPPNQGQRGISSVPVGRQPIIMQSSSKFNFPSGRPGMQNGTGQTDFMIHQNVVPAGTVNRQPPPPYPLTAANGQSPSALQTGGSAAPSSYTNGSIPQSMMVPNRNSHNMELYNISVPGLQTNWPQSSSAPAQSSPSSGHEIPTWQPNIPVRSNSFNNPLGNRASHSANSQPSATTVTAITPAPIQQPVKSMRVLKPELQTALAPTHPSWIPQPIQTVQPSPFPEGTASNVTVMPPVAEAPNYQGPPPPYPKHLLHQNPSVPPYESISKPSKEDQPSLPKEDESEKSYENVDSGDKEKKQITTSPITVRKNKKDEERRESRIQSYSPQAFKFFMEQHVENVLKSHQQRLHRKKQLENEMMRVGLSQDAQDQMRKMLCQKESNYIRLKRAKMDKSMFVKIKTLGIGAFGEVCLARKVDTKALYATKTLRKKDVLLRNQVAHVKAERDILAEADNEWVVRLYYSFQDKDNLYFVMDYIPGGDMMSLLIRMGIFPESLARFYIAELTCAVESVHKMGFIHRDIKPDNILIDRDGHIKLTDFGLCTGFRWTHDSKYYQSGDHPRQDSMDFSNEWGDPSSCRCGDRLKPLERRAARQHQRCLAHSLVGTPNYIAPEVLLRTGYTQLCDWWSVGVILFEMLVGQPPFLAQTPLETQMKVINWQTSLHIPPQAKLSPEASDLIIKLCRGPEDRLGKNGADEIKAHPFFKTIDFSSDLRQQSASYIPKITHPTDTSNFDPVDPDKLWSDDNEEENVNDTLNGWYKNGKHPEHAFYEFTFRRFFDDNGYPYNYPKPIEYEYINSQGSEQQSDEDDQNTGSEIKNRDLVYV

[3] = molecular target: Ribosomal protein S6 kinase alpha-1 (Homo sapiens) (UniProt Q15418); test: Inhibition of RSK1 Domain 1 ACT labeling site harbouring LTDFGLSKEAIDHEKK in human Huh-7 cells at 1 uM by KiNativ Profiling analysis relative to control; format: cell-based
[4] = molecular target: Tyrosine-protein kinase ABL1 (Homo sapiens, UniProt P00519); test: Inhibition of ABL Lys1 labeling site in human A-375 cells at 5 uM by KiNativ Profiling analysis relative to control; format: cell-based
[5] = test system: Epidermal growth factor receptor (Homo sapiens), P00533 [UNDEFINED MUTATION]; test: Inhibition of EGFR L747/T751del mutant (unknown origin) at 1 uM by Ambit Kinomescan binding assay relative to control
[6] = molecular target: T2, Inhibitor of nuclear factor kappa-B kinase subunit beta (Homo sapiens) (UniProt O14920); test: Inhibition of IKKb Lys2 labeling site in human A-375 cells at 5 uM by KiNativ Profiling analysis relative to control; format: cell-based
T2 sequence (whole entry): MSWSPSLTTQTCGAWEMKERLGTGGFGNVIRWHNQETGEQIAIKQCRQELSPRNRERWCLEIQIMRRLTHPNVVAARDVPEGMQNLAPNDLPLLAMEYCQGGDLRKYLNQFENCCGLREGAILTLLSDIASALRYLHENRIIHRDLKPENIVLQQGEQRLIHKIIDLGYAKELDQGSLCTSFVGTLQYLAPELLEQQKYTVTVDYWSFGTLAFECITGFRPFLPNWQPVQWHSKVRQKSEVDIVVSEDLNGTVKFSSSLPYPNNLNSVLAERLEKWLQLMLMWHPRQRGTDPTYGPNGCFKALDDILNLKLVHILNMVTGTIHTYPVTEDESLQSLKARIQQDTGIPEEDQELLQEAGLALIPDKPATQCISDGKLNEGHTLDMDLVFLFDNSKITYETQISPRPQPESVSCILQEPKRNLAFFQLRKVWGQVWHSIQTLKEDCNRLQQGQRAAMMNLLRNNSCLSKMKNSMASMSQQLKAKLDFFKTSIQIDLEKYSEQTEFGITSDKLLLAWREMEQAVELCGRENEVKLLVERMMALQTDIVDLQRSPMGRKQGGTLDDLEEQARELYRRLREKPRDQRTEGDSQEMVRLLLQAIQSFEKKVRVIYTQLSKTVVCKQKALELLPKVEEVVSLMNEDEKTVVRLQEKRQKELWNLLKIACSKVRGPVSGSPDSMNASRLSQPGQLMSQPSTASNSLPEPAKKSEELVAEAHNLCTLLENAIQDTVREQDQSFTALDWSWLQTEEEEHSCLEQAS

[7] = molecular target: T3, Dual specificity mitogen-activated protein kinase kinase 6 (Homo sapiens) (UniProt P52564); test: Inhibition of MAP2K6 Lys2 labeling site in human A-375 cells at 0.5 uM by KiNativ Profiling analysis relative to control; format: cell-based
T3 sequence (whole entry): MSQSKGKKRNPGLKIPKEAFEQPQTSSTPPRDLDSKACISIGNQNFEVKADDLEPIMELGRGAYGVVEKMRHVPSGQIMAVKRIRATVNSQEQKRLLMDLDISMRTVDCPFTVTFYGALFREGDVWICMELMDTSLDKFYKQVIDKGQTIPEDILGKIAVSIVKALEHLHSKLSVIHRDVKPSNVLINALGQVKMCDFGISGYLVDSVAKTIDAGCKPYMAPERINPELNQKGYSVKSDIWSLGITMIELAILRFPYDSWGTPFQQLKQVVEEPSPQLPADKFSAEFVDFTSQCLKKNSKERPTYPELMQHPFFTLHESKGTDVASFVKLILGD

[8] = molecular target: Calcium/calmodulin-dependent protein kinase type II subunit gamma (Homo sapiens) (UniProt Q13555); test: Inhibition of CaMK2g Lys1 labeling site harbouring KTSTQEYAAKIINTKK in human A-375 cells at 0.5 uM by KiNativ Profiling analysis relative to control; format: cell-based
[9] = molecular target: Tyrosine-protein kinase Fer (Homo sapiens, UniProt P16591); test: Inhibition of FER Lys1 labeling site in human Huh-7 cells at 1 uM by KiNativ Profiling analysis relative to control; format: cell-based
Chain of Tyrosine-protein kinase Fer (P16591 whole entry, looked up): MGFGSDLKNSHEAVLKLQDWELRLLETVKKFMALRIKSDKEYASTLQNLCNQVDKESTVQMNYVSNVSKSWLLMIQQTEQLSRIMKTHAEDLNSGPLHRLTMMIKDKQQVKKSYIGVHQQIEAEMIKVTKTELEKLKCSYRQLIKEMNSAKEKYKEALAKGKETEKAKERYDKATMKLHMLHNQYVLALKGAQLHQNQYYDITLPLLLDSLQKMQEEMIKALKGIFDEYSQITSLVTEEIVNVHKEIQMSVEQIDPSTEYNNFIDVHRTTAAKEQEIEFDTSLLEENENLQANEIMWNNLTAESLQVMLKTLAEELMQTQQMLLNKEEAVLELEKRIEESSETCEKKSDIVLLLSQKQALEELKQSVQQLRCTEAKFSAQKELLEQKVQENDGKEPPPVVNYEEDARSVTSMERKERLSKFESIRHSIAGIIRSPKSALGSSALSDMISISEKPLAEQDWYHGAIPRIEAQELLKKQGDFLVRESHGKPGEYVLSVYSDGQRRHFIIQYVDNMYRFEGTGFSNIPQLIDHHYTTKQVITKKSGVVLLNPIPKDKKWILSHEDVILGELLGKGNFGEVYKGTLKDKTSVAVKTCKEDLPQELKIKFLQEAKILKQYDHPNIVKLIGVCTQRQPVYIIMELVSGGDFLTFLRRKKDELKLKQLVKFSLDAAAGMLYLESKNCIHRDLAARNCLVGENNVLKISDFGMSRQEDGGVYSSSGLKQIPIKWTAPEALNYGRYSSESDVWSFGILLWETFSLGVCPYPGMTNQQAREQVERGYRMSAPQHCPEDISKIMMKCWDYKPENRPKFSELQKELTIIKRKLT

Chain of Calcium/calmodulin-dependent protein kinase type II subunit gamma (Homo sapiens) (Q13555 whole entry): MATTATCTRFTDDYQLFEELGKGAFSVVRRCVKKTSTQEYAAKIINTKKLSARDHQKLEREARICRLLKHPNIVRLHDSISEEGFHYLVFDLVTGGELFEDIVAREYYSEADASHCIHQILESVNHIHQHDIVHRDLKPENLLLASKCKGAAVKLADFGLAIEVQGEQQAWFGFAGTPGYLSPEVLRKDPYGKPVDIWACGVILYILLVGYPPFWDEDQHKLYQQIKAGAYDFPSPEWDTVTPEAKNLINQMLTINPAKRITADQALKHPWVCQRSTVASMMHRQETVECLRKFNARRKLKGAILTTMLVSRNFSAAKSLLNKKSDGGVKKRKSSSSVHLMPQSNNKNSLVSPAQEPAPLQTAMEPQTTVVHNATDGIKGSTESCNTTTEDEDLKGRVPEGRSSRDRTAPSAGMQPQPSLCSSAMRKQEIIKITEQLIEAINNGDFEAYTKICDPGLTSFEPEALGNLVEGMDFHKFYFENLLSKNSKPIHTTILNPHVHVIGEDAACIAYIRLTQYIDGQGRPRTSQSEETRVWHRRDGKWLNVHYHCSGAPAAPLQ
Chain of Ribosomal protein S6 kinase alpha-1 (Homo sapiens) (Q15418 whole entry, the tested form may be a part): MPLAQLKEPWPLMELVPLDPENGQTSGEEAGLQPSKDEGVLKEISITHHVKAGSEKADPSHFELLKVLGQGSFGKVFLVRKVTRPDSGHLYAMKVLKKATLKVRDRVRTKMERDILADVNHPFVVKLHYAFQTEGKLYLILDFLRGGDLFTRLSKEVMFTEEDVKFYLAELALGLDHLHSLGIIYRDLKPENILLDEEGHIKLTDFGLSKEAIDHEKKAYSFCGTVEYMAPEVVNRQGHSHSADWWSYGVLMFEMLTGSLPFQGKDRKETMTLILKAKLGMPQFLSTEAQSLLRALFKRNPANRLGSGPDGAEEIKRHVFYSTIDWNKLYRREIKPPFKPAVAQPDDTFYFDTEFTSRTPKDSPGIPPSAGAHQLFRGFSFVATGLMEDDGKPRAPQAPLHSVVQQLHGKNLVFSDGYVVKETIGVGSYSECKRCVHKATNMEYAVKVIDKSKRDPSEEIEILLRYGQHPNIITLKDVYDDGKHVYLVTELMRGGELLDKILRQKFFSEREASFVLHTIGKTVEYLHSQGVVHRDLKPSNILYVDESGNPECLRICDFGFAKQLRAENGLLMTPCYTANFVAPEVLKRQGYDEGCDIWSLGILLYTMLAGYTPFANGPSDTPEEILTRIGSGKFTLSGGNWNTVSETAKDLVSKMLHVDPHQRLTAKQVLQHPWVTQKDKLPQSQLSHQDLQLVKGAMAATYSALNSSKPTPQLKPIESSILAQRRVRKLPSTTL
Chain of Epidermal growth factor receptor (Homo sapiens), P00533 [UNDEFINED MUTATION] (P00533 whole entry, looked up, stated change not applied): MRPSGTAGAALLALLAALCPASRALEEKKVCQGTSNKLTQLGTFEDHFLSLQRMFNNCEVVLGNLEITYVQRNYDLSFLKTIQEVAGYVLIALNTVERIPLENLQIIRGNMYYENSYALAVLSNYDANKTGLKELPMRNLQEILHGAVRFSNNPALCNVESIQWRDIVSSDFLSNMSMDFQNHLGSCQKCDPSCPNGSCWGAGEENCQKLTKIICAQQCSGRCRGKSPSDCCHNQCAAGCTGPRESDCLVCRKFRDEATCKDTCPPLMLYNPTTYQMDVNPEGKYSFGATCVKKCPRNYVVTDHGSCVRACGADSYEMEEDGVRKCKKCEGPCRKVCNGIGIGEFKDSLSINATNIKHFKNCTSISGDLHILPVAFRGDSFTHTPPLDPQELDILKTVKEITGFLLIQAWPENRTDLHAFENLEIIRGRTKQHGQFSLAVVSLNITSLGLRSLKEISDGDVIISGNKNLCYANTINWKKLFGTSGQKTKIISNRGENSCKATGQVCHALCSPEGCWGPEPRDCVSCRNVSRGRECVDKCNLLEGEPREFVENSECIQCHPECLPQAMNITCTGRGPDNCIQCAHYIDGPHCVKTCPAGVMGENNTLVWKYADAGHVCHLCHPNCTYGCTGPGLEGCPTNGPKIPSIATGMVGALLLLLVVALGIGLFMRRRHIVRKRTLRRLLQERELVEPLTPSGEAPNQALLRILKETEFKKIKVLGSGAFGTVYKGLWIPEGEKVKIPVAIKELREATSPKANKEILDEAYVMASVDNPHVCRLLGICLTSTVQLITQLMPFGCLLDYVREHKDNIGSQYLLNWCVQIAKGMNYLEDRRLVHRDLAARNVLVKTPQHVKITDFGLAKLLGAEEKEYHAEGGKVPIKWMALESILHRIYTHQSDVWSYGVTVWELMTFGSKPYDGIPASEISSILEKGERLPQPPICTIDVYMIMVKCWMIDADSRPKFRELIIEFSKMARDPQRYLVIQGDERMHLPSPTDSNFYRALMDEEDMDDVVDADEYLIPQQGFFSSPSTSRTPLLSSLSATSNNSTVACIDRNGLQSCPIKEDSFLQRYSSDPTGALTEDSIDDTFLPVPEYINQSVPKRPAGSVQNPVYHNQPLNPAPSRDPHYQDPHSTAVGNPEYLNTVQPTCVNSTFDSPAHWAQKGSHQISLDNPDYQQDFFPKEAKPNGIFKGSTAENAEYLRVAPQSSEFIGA
Chain of Mitogen-activated protein kinase 14 (Q16539 whole entry): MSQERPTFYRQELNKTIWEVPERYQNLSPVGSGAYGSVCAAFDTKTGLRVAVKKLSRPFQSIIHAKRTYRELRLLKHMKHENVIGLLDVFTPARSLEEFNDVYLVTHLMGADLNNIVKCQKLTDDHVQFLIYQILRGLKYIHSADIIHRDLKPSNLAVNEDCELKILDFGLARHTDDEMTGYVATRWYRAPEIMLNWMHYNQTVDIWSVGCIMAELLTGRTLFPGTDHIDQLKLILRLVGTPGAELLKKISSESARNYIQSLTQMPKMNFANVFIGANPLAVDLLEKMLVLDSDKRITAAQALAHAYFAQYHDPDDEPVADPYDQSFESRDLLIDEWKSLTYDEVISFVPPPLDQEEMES
Chain of Tyrosine-protein kinase ABL1 (P00519 whole entry): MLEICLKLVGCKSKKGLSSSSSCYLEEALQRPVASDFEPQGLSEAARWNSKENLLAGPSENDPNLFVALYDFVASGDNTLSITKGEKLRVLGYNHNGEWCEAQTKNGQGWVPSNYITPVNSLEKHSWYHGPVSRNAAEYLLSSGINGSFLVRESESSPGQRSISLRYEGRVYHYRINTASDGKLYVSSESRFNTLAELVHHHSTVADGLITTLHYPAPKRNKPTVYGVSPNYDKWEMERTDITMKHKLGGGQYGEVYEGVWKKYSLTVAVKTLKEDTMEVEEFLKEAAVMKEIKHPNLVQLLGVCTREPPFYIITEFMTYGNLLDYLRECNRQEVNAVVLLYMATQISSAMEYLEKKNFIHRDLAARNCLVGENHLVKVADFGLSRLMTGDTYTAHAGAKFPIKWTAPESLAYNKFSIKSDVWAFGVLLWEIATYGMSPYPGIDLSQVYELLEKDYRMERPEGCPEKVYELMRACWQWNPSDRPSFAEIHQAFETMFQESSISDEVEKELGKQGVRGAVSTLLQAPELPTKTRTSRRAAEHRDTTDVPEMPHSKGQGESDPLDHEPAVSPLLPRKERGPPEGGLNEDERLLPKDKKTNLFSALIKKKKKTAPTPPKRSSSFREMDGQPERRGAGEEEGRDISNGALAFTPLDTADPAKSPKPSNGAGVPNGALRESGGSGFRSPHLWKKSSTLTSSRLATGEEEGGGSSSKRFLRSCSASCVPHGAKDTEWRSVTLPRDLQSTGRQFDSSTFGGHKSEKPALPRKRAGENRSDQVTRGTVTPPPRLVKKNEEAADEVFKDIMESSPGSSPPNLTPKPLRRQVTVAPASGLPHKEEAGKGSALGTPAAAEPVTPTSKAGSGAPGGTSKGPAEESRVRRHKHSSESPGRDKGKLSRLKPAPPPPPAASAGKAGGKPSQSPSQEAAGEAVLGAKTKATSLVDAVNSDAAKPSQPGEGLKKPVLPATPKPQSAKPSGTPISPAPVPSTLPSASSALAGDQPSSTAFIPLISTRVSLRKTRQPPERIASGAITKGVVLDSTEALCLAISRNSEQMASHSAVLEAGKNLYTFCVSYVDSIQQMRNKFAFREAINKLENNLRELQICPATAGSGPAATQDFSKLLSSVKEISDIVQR

In the case of `CCN1CCN(Cc2ccc(NC(=O)c3ccc(C)c(Oc4ccnc5[nH]ccc45)c3)cc2C(F)(F)F)CC1`, the percent of control [1] is reported as 0%, the inhibition [2] is reported as “inactive” and the inhibition [3] is reported as 6.9%. It also gave an inhibition [4] of 86.8%.
Work on `CCN1CCN(Cc2ccc(NC(=O)c3ccc(C)c(/C=C/c4cnc5[nH]ccc5c4OC)c3)cc2C(F)(F)F)CC1` yielded an inhibition [5] of 1.6%, an inhibition [6] of 50.5% and an inhibition [7] of -7%. The inhibition [8] was 13%.
`CNc1cc(Oc2cc(C(=O)Nc3cc(N4CCN(C)CC4)cc(C(F)(F)F)c3)ccc2C)ncn1` showed an inhibition [9] of -7.1%.
